Measured values reported in patent US5922554A, “Inhibition of cellular uptake of cholesterol” (The Regents of the University of California, priority 1996, dated 1999).

Columns and labels:
fibroblast monolayers [1] = test: Influx/uptake of ^3 H-FC (free cholesterol) from labeled LDL (or plasma, HDL) into normal fibroblast monolayers; assay type: cell-based, human; design: Emax: dose or concentration left out as unconfirmed; conditions: for effect on uptake of ^3 H-FC from LDL: up to 60 μM; for FC Influx: LDL-FC 60.2 μg ml^-1, 60 min, 37° C., 30 min preequilibration with inhibitor at: Na-azide 1 mM, NH4-vanadate 1 mM, NEM 2 mM, KNO3 50 mM, progesterone 30 μM, forskolin 30 μM, IBMX 100 μM, chloroquine 20 μM; for effect on LDL FC uptake: Table 3 conditions; for FC Influx, % (PBS only = 100.0): same concentrations and conditions as Table 3 FC influx, 60 min; for inhibition at higher concentration (words): up to 100 μM
[2] = test system: LDL-receptor deficient cells (GM 2000 line); test: Influx of ^3 H-FC from LDL into LDL-receptor-deficient fibroblasts (GM 2000)
fibroblast monolayers [3] = test: Transfer of intracellular ^3 H-FC to the cell surface (cholesterol oxidase accessibility); assay type: cell-based, human; conditions: for % transfer of intracellular ^3 H-FC to the cell surface, relative to rate in absence of inhibitor: NEM 2 mM, KNO3 50 mM, nocodazole, brefeldin A, vinblastine 40 μM, pulse labeled 2 min 31° C., then 30 min 31° C.
Experimental: This assay utilized the finding (see Example 1) that only FC in the caveolar fraction of the plasma membrane fraction was modified by cholesterol oxidase in unfixed fibroblast monolayers.
The rate at which intracellular LDL-derived ^3 H-FC became accessible at the cell surface was measured as follows. Cell monolayers were labeled with ^3 H-FC LDL under the conditions shown for each experiment. Unbound and adsorbed LDL were removed as described above. In some experiments metabolic inhibitors of different transport steps were then added for 30 min at 15° C. […] Cholesterol oxidase (Boehringer-Manheim, Indianapolis, Ind., USA) was added in PBS to a final concentration of 1 U ml^-1. Incubation was for 4 h at 0° C. The cells were washed with ice-cold PBS, and extracted with 0. 1N NAOH. Cell total lipid was extracted with chloroform-methanol (1:1 v/v). […] .
Fibroblast monolayers were prelabeled with FC-labeled LDL for 2 min at 31° C. Medium and surface-bound labeled LDL were removed as described above. The cells were incubated with inhibitors of intracellular transport for 30 min at 15° C. Movement of FC label to the cell surface remained negligible (FIG. 11).
^a Relative to rate in the absence of inhibitor. Values are expressed

fibroblast monolayers [4] = test: D2O-Ficoll density gradient fractionation of ^3 H-FC labeled fibroblasts; assay type: cell-based, human; conditions: clathrin fraction d 1.12 g ml^-1; NEM 2 mM
Experimental: Early endosomal vesicles were labeled with LDL-derived ^3 H-FC by a modification of procedures described by Woodman & Warren (1991) J. Cell Biol., 112:1133-1141. Fibroblast monolayers in 10 cm dishes were washed in ice-cold PBS. The cells were labeled by incubation (2 h, 4° C.) with ^3 H-FC LDL. The monolayers were washed in PBS and brought to 31° C. for 0-15 min. The cells were then quickly chilled on ice, and cold unlabeled LDL was added (15 min, 4° C.) to displace any remaining surface-bound labeled LDL and all subsequent steps were carried out at 0-4° C.
Cells from three 10 cm dishes were used for each gradient. Monolayers were washed with 140 mM sucrose, 0.5 mM MgCl2, 1 mM EGTA, 20 mM 2-[N-morpholino]ethanesulfonic acid (MES), 70 mM potassium acetate, pH 6.6 (`vesicle buffer`) (Woodman & Warren, supra.). The cells were scraped from the dishes. Dithiothreitol (1 mm) and protease inhibitors (PMSF, 200 μg ml^-1; benzamidine 0.5 mM; soybean trypsin inhibitor 10 μg ml^-1; leupeptin 1 μg ml^-1) were added. The cells were broken with a Dounce homogenizer (15 strokes) and the homogenate centrifuged at 500× g for 5 min. Ribonuclease A (50 μg ml^-1) was added. After 30 min a second centrifugation was carried out (7000× g, 30 min). Supernatant (~2 ml) was layered on a 10 ml continuous gradient of 2% Ficoll-9% D2 O to 20% Ficoll-90% D2 O in vesicle buffer containing 1 mM dithiothreitol. Centrifugation in a Beckman SW41 rotor was carried out at 80,000× g for 16 h. Fractions (~0.6 ml) were collected dropwise and the distribution of FC label determined. Because of slight variation in fraction size between gradients, data were normalized to 20 fractions for comparison between experiments. Solution density was determined gravimetrically using 100 μl portions of each fraction. The density of a given fraction was reproducible ±0.5% between experiments.
Fibroblast monolayers were incubated with ^3 H-FC LDL for 30 min at 31° C. to predominantly label the intermediate density vesicle fraction. Cell surface LDL was removed as described above. […]

fibroblast monolayers [5] = test: Cholesterol efflux from ^3 H-cholesterol labeled fibroblasts to plasma; assay type: cell-based, human
Experimental: Fibroblast monolayers were equilibrated with ^3 H-FC-labeled native plasma or with isolated ^3 H-labeled LDL, as specified for each experiment. Following incubation, the dishes were washed with albumin-complete PBS and then (×4) with complete PBS. They were then incubated for 3 min with unlabeled plasma or lipoprotein fractions and the rate of appearance of radioactivity in the medium determined. Samples of medium (100 μl) were immediately chilled in ice water and centrifuged (10 min, 2000× g) at 0-2° C. ^3 H-cholesterol radioactivity in the supernatant was either assayed directly, or fractionated by agarose gel electrophoresis. FC efflux was linear as previously reported (Kawano et al., Biochemistry, 32: 5025-5028 (1993)).
For electrophoresis, 20 μl portions of labeled medium were added to strips of 0.75% w/v agarose in 0.025M barbital buffer (pH 8.6) and separated as previously described (Fielding et al., Biochemistry, 30: 8551-8557 (1991)). 2.5 mm gel fractions were then collected, and radioactivity measured. The location of major lipoprotein classes was determined from strips run simultaneously with whole native plasma equilibrated (60 min, 37° C.) with ^3 H-FC.
^c Percent loss of label from cells prelabeled (10 min, 37° C.

fibroblasts = conditions: Hokland et al. 1993; cited from earlier work
[6] = Homo sapiens, Fibroblast, read-out: Influx of 3H-FC, % Remaining

CC(=O)O[C@H]1C(=O)[C@@]2(C)[C@H]([C@H](OC(=O)c3ccccc3)[C@]3(O)C[C@H](OC(=O)[C@H](O)[C@@H](NC(=O)c4ccccc4)c4ccccc4)C(C)=C1C3(C)C)[C@]1(OC(C)=O)CO[C@@H]1C[C@@H]2O [taxol]
inhibition of LDL-FC pathway (summary, words) (fibroblast monolayers [1]): not inhibited | effect on uptake of ^3 H-FC from LDL (fibroblast monolayers [1]): without effect

[N-]=[N+]=[N-].[Na+] [Na-azide]
inhibition of LDL-FC pathway (summary, words) (fibroblast monolayers [1]): not inhibited | FC Influx (fibroblast monolayers [1]): 1.18 ± 0.02 µg | effect on LDL FC uptake (fibroblast monolayers [1]): without effect | FC Influx, % (PBS only = 100.0) (fibroblast monolayers [1]): 89.5%

sodium heparin
inhibition of influx of FC from LDL (fibroblast monolayers [1]; heparin 0.1 mg/ml, normal cells, LDL 150 μg FC ml^-1, 10 min 37° C.): Approximately 80% | inhibition of influx of FC from LDL ([2]; heparin 0.1 mg/ml, GM 2000 cells): Approximately 80%

[3H]C1C([3H])[C@@]2(C)C(=CC[C@H]3[C@@H]4CC[C@H]([C@H](C)CCCC(C)C)[C@@]4(C)CC[C@@H]32)C[C@H]1O (stereo partly shown) [^3 H-FC, 1,2-^3 H-cholesterol]
cholest-4-en-3-one fraction of total label (fibroblast monolayers [3]; 0-4° C., 4 experiments): 0.8±0.2% | t1/2 of increase in oxidized FC (transfer to cell surface) (fibroblast monolayers [3]; 31° C., FIG. 11): ~ 2 min | internalized FC localized to oxidase-sensitive fraction (fibroblast monolayers [3]; after 2 min pulse label, 31° C.): about 40%

[NH4+].[O]=[V](=[O])[O-] [NH4 -vanadate]
inhibition of LDL-FC pathway (summary, words) (fibroblast monolayers [1]): not inhibited | FC Influx (fibroblast monolayers [1]): 1.36 ± 0.08 µg | effect on LDL FC uptake (fibroblast monolayers [1]): without effect | FC Influx, % (PBS only = 100.0) (fibroblast monolayers [1]): 103.2%

CC[C@@]1([C@@H]2O[C@@H]([C@H]3O[C@@](O)(CO)[C@H](C)C[C@@H]3C)C[C@@H]2C)CC[C@H]([C@]2(C)CC[C@]3(C[C@H](O)[C@@H](C)[C@@H]([C@@H](C)[C@@H](OC)[C@H](C)C(=O)O)O3)O2)O1 [Monensin]
inhibition of LDL-FC pathway (summary, words) (fibroblast monolayers [1]): inhibited | effect on LDL FC uptake (fibroblast monolayers [1]): effective in reducing the selective uptake of FC from LDL | inhibition at higher concentration (words) (fibroblast monolayers [1]): no increase in inhibition | FC label in density gradient (fibroblast monolayers [4]): A similar result | selective uptake of FC from LDL, LDL-receptor deficient cells ([2]; GM2000): Comparable results

CC[C@]1(O)C[C@@H]2CN(CCc3c([nH]c4ccccc34)[C@@](C(=O)OC)(c3cc4c(cc3OC)N(C)[C@H]3[C@@](O)(C(=O)OC)[C@H](OC(C)=O)[C@]5(CC)C=CCN6CC[C@]43[C@@H]65)C2)C1 [Vinblastine]
inhibition of LDL-FC pathway (summary, words) (fibroblast monolayers [1]): not inhibited | effect on uptake of ^3 H-FC from LDL (fibroblast monolayers [1]): without effect | transport of intracellular ^3 H-FC to the cell surface/caveolae (fibroblast monolayers [3]): unaffected | inhibition at 40 µM (fibroblast monolayers [3]; Homo sapiens, Fibroblast, read-out: % transfer of intracellular ^3 H-FC to the cell surface, relative to rate in absence of inhibitor): 100 ± 2%

CCN(CC)CCCC(C)Nc1ccnc2cc(Cl)ccc12 (stereo not shown) [Chloroquine]
LDL-FC influx (discussion, words) (fibroblast monolayers [1]): no effect | FC Influx (fibroblast monolayers [1]): 1.34 ± 0.04 µg | FC Influx, % (PBS only = 100.0) (fibroblast monolayers [1]): 102.3%

O=[N+]([O-])[O-].[K+] [KNO3]
inhibition of LDL-FC pathway (summary, words) (fibroblast monolayers [1]): inhibited | time course of inhibition of ^3 H-FC transfer compared with NEM (FIG. 8) (fibroblast monolayers [1]; 50 mM KNO3, data not shown): comparable time course | FC Influx (fibroblast monolayers [1]): 0.28 ± 0.02 µg | inhibition of uptake of free cholesterol from LDLs (summary) (fibroblast monolayers [1]; NEM or KNO3, Example 1, FIG. 8): > 80% | FC Influx, % (PBS only = 100.0) (fibroblast monolayers [1]): 21.0% | transport of intracellular ^3 H-FC to the cell surface/caveolae (fibroblast monolayers [3]): inhibited the return of FC to the cell surface, but less effectively than did nocodazole | % transfer of intracellular ^3 H-FC to the cell surface, relative to rate in absence of inhibitor (fibroblast monolayers [3]): 70 ± 4% | initial rate of efflux of FC from prelabeled cells to plasma (fibroblast monolayers [5]): increased several-fold

C=C[C@@]1(C)CC(=O)[C@]2(O)[C@@]3(C)[C@@H](O)CCC(C)(C)[C@@H]3[C@H](O)[C@H](OC(C)=O)[C@@]2(C)O1 [Forskolin]
LDL-FC influx (discussion, words) (fibroblast monolayers [1]): unaffected | inhibition of LDL-FC pathway (summary, words) (fibroblast monolayers [1]): not inhibited | FC Influx (fibroblast monolayers [1]): 1.39 ± 0.01 µg | effect on LDL FC uptake (fibroblast monolayers [1]): no effect | FC Influx, % (PBS only = 100.0) (fibroblast monolayers [1]): 105.3% | transfer of newly-synthesized cholesterol to plasma membrane (fibroblasts): stimulated

C[C@H]1CCC/C=C/[C@@H]2C[C@H](O)C[C@H]2[C@H](O)/C=C/C(=O)O1 [Brefeldin A]
inhibition of LDL-FC pathway (summary, words) (fibroblast monolayers [1]): not inhibited | effect on uptake of ^3 H-FC from LDL (fibroblast monolayers [1]): without effect | transport of intracellular ^3 H-FC to the cell surface/caveolae (fibroblast monolayers [3]): unaffected | % transfer of intracellular ^3 H-FC to the cell surface, relative to rate in absence of inhibitor (fibroblast monolayers [3]): 95 ± 5%

C=C1C(C)C2C(Cc3ccccc3)NC(=O)C23C(OC(C)=O)/C=C/C(C)(O)C(=O)C(C)CC=CC3C1O (stereo not shown) [Cytochalasin D]
inhibition of LDL-FC pathway (summary, words) (fibroblast monolayers [1]): inhibited | activity at 40 µM (fibroblast monolayers [1]; [6]): 38 ± 2% | inhibition at 40 µM (fibroblast monolayers [1]; Homo sapiens, Fibroblast, read-out: reduction of uptake of ^3 H-FC from LDL (average)): 65% | inhibition at higher concentration (words) (fibroblast monolayers [1]; listed as Cytochalasin): No greater inhibition | inhibition at higher concentration (words) (fibroblast monolayers [1]; listed as cytochalasin D): no increase in inhibition | transport of intracellular ^3 H-FC to the cell surface/caveolae (fibroblast monolayers [3]): no effect | FC label in density gradient (fibroblast monolayers [4]): A similar result

CO/C1=C\C(C)=C\[C@@H](C)[C@@H](O)[C@@H](C)C/C(C)=C/C=C/[C@H](OC)[C@@H]([C@@H](C)[C@@H](O)[C@H](C)[C@@]2(O)C[C@@H](O)[C@H](C)[C@@H](C(C)C)O2)OC1=O [Bafilomycin A1]
inhibition of LDL-FC pathway (summary, words) (fibroblast monolayers [1]): inhibited | activity at 45 µM (fibroblast monolayers [1]; [6]): 70 ± 4% | Emax (fibroblast monolayers [1]; Homo sapiens, Fibroblast, read-out: maximal effect on uptake of FC from LDL): 30%

CC(C)Cn1c(=O)n(C)c(=O)c2[nH]cnc21 [IBMX, isobutyl methylxanthine]
LDL-FC influx (discussion, words) (fibroblast monolayers [1]): unaffected | inhibition of LDL-FC pathway (summary, words) (fibroblast monolayers [1]): not inhibited | FC Influx (fibroblast monolayers [1]): 1.46 ± 0.04 µg | effect on LDL FC uptake (fibroblast monolayers [1]): no effect | FC Influx, % (PBS only = 100.0) (fibroblast monolayers [1]): 110.8% | transfer of newly-synthesized cholesterol to plasma membrane (fibroblasts): stimulated

COC(=O)Nc1nc2ccc(C(=O)c3cccs3)cc2[nH]1 [Nocodazole]
inhibition of LDL-FC pathway (summary, words) (fibroblast monolayers [1]): not inhibited | activity at 60 µM (fibroblast monolayers [1]; Homo sapiens, Fibroblast, cytochalasin D 40 μM, monensin 40 μM, nocodazole 60 μM, bafilomycin A1 45 μM, means ±1 SD of three experiments, read-out: Influx of 3H-FC, % Remaining): 101 ± 6% | effect on uptake of ^3 H-FC from LDL (fibroblast monolayers [1]): without effect | transport of intracellular ^3 H-FC to the cell surface/caveolae (fibroblast monolayers [3]): reduced | transport of the vesicles to the plasma membrane (summary, words) (fibroblast monolayers [3]): inhibited | % transfer of intracellular ^3 H-FC to the cell surface, relative to rate in absence of inhibitor (fibroblast monolayers [3]): 40 ± 1%
